Reference: ChEMBL document CHEMBL1909046, “DrugMatrix in vitro pharmacology data”

What was measured:
[1] = biological target: T1, Alpha-1D adrenergic receptor (Homo sapiens, UniProt P25100); format: cell membranes, HEK293, Membrane; settings: hek293; also: in other assays of this panel Not Active means under 50% inhibition at 10 µM
T1 sequence (P25100 whole entry): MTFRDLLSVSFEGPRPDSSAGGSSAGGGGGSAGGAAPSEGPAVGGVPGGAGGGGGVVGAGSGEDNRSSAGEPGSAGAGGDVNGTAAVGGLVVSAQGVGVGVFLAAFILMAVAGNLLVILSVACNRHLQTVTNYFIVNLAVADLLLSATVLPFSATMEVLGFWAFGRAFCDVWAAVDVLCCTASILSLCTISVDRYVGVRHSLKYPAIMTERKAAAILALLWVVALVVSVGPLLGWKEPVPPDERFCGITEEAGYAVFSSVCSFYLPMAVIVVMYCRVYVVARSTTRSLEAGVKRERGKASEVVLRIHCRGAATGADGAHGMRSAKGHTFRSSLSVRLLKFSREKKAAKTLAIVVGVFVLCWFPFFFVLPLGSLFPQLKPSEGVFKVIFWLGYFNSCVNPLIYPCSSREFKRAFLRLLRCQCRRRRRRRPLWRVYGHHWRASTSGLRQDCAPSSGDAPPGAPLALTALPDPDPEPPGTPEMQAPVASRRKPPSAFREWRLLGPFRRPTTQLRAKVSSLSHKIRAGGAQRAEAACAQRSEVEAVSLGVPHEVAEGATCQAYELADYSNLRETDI

Calcitonin receptor = biological target: T2, Calcitonin receptor (Homo sapiens, UniProt P30988); format: cell membranes, Membrane; settings: t47d; also: in other assays of this panel Not Active means under 50% inhibition at 10 µM
T2 sequence (P30988 whole entry): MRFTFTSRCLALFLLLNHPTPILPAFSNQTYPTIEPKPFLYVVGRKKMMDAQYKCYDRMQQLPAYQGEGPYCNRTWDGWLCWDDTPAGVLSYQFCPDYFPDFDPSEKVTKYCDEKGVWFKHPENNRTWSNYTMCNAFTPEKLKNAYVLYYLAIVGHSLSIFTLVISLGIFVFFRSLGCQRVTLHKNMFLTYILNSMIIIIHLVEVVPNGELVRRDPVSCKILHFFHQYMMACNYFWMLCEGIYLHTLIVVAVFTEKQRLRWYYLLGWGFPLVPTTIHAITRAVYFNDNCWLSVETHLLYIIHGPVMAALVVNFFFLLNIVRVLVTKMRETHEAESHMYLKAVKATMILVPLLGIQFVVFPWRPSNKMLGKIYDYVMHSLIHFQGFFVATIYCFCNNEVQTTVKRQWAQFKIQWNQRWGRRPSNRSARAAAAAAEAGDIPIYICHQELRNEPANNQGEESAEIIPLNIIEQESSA

Substance-P receptor = Substance-P receptor (Homo sapiens, UniProt P25103); format: cell membranes, CHO, Membrane; settings: cho; also: in other assays of this panel Not Active means under 50% inhibition at 10 µM
[2] = biological target: Sodium-dependent dopamine transporter (Homo sapiens, UniProt Q01959); test: DRUGMATRIX: Dopamine Transporter radioligand binding (ligand: [125I] RTI-55); format: cell membranes, CHO-K1, Membrane; settings: cho-k1; Not Active = under 50% inhibition at 10 µM
[3] = DRUGMATRIX: Glutamate, AMPA radioligand binding (ligand: [3H] AMPA); format: cell membranes, Rattus norvegicus, Wistar, Cerebral cortex, Membrane; settings: Not Active = under 50% inhibition at 10 µM
[4] = biological target: T3, Receptor-type tyrosine-protein phosphatase C (Homo sapiens, UniProt P08575); design: species or system Escherichia coli;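 also: inhibition of CD45 enzyme activity measured using DiFMUP as substrate; in other assays of this panel Not Active means under 50% inhibition at 10 µM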
T3 sequence (P08575 whole entry): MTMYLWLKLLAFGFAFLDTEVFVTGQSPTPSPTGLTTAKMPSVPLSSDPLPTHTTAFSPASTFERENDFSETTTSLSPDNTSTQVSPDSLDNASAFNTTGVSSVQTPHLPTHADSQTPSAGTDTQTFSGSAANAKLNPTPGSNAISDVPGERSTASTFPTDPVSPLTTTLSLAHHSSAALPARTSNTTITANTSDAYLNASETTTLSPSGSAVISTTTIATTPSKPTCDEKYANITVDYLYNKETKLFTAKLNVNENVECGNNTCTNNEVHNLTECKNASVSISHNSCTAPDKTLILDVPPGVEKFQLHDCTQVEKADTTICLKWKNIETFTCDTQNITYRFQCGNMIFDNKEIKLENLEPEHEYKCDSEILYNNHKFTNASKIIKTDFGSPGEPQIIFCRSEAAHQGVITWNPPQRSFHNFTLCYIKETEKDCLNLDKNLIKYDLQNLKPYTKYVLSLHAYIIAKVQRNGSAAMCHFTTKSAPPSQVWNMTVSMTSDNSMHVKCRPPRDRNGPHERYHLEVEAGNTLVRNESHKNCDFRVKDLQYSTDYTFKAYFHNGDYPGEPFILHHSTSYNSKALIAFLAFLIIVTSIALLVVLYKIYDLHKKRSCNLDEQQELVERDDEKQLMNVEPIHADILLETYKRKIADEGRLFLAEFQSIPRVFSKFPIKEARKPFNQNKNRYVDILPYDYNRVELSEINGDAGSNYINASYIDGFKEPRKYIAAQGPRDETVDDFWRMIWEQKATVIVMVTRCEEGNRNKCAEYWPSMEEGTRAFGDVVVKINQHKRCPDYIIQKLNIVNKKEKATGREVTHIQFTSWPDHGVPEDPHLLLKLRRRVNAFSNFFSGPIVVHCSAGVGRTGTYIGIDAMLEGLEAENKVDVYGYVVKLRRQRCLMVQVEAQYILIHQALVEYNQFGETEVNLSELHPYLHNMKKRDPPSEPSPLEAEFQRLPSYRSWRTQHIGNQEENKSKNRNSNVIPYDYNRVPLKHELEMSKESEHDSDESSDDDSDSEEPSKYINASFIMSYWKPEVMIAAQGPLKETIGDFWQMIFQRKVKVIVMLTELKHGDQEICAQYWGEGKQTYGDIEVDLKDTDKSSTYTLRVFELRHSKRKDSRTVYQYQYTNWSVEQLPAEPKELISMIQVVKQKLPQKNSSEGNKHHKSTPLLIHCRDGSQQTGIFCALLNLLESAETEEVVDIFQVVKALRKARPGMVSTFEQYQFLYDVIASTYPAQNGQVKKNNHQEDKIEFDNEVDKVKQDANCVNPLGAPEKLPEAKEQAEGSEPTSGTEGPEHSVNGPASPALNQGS

Sodium-dependent dopamine transporter, sequence (Q01959 whole entry): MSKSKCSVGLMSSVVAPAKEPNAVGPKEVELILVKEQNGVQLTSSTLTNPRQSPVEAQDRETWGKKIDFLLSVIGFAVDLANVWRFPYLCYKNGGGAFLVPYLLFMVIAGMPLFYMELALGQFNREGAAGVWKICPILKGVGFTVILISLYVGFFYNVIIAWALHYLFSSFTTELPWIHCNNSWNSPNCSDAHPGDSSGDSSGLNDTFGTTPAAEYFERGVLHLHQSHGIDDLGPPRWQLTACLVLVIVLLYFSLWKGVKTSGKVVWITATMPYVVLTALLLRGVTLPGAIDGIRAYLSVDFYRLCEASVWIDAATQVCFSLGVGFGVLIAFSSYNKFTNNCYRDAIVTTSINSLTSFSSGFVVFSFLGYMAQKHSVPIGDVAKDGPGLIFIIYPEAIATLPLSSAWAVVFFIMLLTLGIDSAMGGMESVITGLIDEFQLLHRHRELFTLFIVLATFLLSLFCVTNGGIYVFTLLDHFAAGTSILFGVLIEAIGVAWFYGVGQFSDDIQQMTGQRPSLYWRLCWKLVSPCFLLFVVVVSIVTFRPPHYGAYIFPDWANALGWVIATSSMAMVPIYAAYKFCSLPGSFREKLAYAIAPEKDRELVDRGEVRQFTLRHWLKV
Substance-P receptor, sequence (P25103 whole entry): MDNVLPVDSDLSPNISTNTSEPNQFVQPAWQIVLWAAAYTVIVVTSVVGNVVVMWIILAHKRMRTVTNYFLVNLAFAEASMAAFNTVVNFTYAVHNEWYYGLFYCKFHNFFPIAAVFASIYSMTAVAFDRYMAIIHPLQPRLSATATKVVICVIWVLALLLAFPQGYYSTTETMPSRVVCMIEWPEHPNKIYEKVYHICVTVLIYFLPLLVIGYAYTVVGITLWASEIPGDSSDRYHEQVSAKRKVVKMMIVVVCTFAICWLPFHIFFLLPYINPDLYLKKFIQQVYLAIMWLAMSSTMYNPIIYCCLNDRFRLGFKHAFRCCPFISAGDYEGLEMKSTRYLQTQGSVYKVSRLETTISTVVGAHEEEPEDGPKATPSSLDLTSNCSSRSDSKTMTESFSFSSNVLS

CN(N=O)C(=O)N[C@@H](C=O)[C@@H](O)[C@H](O)[C@H](O)CO [STREPTOZOCIN]
Not Active: IC50 [1] | IC50 (Calcitonin receptor) | IC50 (Substance-P receptor) | IC50 [2] | IC50 [3] | Ki [3] | IC50 [4]

Cc1cc(NS(=O)(=O)c2ccc(N)cc2)no1 [SULFAMETHOXAZOLE]
Not Active: IC50 [1] | IC50 (Calcitonin receptor) | IC50 (Substance-P receptor) | IC50 [2] | IC50 [3] | Ki [3] | IC50 [4]

Nc1ccc(S(N)(=O)=O)cc1 [SULFANILAMIDE]
Not Active: IC50 [1] | IC50 (Calcitonin receptor) | IC50 (Substance-P receptor) | IC50 [2] | IC50 [3] | Ki [3] | IC50 [4]

Nc1ccc(S(=O)(=O)Nc2ccnn2-c2ccccc2)cc1 [SULFAPHENAZOLE]
Not Active: IC50 [1] | IC50 (Calcitonin receptor) | IC50 (Substance-P receptor) | IC50 [2] | IC50 [3] | Ki [3] | IC50 [4]

C=CC[C@@H]1/C=C(\C)C[C@H](C)C[C@H](OC)[C@H]2O[C@@](O)(C(=O)C(=O)N3CCCC[C@H]3C(=O)O[C@H](/C(C)=C/[C@@H]3CC[C@@H](O)[C@H](OC)C3)[C@H](C)[C@@H](O)CC1=O)[C@H](C)C[C@@H]2OC [TACROLIMUS ANHYDROUS]
Not Active: IC50 [1] | IC50 (Calcitonin receptor) | IC50 (Substance-P receptor) | IC50 [2] | IC50 [3] | Ki [3] | IC50 [4]

CC1CN(c2cc3c(cc2F)c(=O)c(C(=O)O)cn3-c2ccc(F)cc2F)CCN1 (stereo not drawn) [TEMAFLOXACIN]
Not Active: IC50 [1] | IC50 (Calcitonin receptor) | IC50 (Substance-P receptor) | IC50 [2] | IC50 [3] | Ki [3] | IC50 [4]

CC(C)(C)NCC(O)c1cc(O)cc(O)c1 (stereo not drawn) [TERBUTALINE]
Not Active: IC50 [1] | IC50 (Calcitonin receptor) | IC50 (Substance-P receptor) | IC50 [2] | IC50 [3] | Ki [3] | IC50 [4]

CN(C)[C@@H]1C(O)=C(C(N)=O)C(=O)[C@@]2(O)C(O)=C3C(=O)c4c(O)cccc4[C@@](C)(O)[C@H]3C[C@@H]12 [TETRACYCLINE]
Not Active: IC50 [1] | IC50 (Calcitonin receptor) | IC50 (Substance-P receptor) | IC50 [2] | IC50 [3] | Ki [3] | IC50 [4]

c1ccc2[nH]c(-c3cscn3)nc2c1 [THIABENDAZOLE]
Not Active: IC50 [1] | IC50 (Calcitonin receptor) | IC50 (Substance-P receptor) | IC50 [2] | IC50 [3] | Ki [3] | IC50 [4]

Cc1ccc(C(=O)C(C)CN2CCCCC2)cc1 (stereo not drawn) [TOLPERISONE]
Not Active: IC50 [1] | IC50 (Calcitonin receptor) | IC50 (Substance-P receptor) | IC50 [2] | IC50 [3] | Ki [3] | IC50 [4]

NC(CO)(CO)CO [TROMETHAMINE]
Not Active: IC50 [1] | IC50 (Calcitonin receptor) | IC50 (Substance-P receptor) | IC50 [2] | IC50 [3] | Ki [3] | IC50 [4]

CN1[C@@H]2CC[C@H]1C[C@@H](OC(=O)c1c[nH]c3ccccc13)C2 [TROPISETRON]
Not Active: IC50 [1] | IC50 (Calcitonin receptor) | IC50 (Substance-P receptor) | IC50 [2] | IC50 [3] | Ki [3] | IC50 [4]

COc1cc(C(=O)NC2CCCNC2)cc(OC)c1OC (stereo not drawn) [TROXIPIDE]
Not Active: IC50 [1] | IC50 (Calcitonin receptor) | IC50 (Substance-P receptor) | IC50 [2] | IC50 [3] | Ki [3] | IC50 [4]

CC(C)[C@H](N)C(=O)OCCOCn1cnc2c(=O)nc(N)[nH]c21 [VALACYCLOVIR]
Not Active: IC50 [1] | IC50 (Calcitonin receptor) | IC50 (Substance-P receptor) | IC50 [2] | IC50 [3] | Ki [3] | IC50 [4]
